According to patent US8802597B2, “Herbicidal pyrimidines” (E I du Pont de Nemours and Company, priority 2003, dated 2014):

What was measured:
[1] = tested on: barnyardgrass (Echinochloa crus-galli); assay: Test C flooded paddy test; assay type: in vivo; details: Flood
Procedure: (§1) At the same time, plants selected from these crop and weed species and also winter barley (Hordeum vulgare), blackgrass (Alopecurus myosuroides), canarygrass (Phalaris minor), chickweed (Stellaria media), downy brome (Bromus tectorum), green foxtail (Setaria viridis), Italian ryegrass (Lolium multiflorum), wheat (Triticum aestivum), wild oat (Avena fatua) and windgrass (Apera spica-venti) were treated with postemergence applications of some of the test chemicals formulated in the same manner. Plants ranged in height from 2 to 18 cm (1- to 4-leaf stage) for postemergence treatments. Plant species in the flooded paddy test consisted of rice (Oryza sativa), umbrella sedge (Cyperus difformis), duck salad (Heteranthera limosa) and barnyardgrass (Echinochloa crus-galli) grown to the 2-leaf stage for testing. Treated plants and controls were maintained in a greenhouse for 12 to 14 days, after which time all species were compared to controls and visually evaluated. Plant response ratings, summarized in Table C, are based on a scale of 0 to 100 where 0 is no effect and 100 is complete control. A dash (-) response means no test result.

[2] = tested on: duck salad (Heteranthera limosa); assay: Test C flooded paddy test; assay type: in vivo; details: Flood, scale 0 to 100
Procedure: as §1

[3] = tested on: umbrella sedge (Cyperus difformis); assay: Test C flooded paddy test; assay type: in vivo; details: Flood, scale 0 to 100
Procedure: as §1

rice (Oryza sativa) = assay: Test C flooded paddy test; assay type: in vivo; details: Flood, scale 0 to 100
Procedure: as §1

[4] = tested on: water seeded rice seedlings (Oryza sativa cv. ‘Japonica-M202’); assay: Test E flooded paddy water application; assay type: in vivo; details: Flood, 21 days, scale 0 to 100 (0 no effect, 100 complete control)
Outline: (§2)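 Greenhouse pots of Tama silt loam with weeds and rice at 2.0–2.5-leaf stage, flooded to 3 cm; compounds applied directly into paddy water, depth maintained. Visual rating versus untreated controls after 21 days, 0 (no effect) to 100 (complete control); 29.5/26.7 °C, 16-h photoperiod.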

[5] = tested on: late watergrass (Echinochloa oryzicola); assay: Test E flooded paddy water application; assay type: in vivo; details: Flood, 21 days, scale 0 to 100 (0 no effect, 100 complete control)
Outline: as §2

[6] = tested on: rice flatsedge (Cyperus iria); assay: Test E flooded paddy water application; assay type: in vivo; details: Flood, 21 days, scale 0 to 100 (0 no effect, 100 complete control)
Outline: as §2

[7] = tested on: wheat (Triticum aestivum); assay: Test C postemergence; assay type: in vivo; details: for Wheat plant response rating: scale 0 to 100 (0 no effect, 100 complete control)
Outline: (§3)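 Pre: seeds planted, sprayed same day. Post: 1- to 4-leaf plants (2–18 cm). Formulation: non-phytotoxic solvent + surfactant. Greenhouse 12–14 d; visual % control vs untreated, 0–100.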

[8] = tested on: Italian ryegrass (Lolium multiflorum); assay: Test C postemergence; assay type: in vivo; details: for Ryegrass, Italian plant response rating: scale 0 to 100 (0 no effect, 100 complete control)
Outline: as §3

[9] = tested on: canarygrass (Phalaris minor); assay: Test C postemergence; assay type: in vivo
Outline: as §3

[10] = tested on: winter barley (Hordeum vulgare); assay: Test C postemergence; assay type: in vivo
Outline: as §3

[11] = tested on: windgrass (Apera spica-venti); assay: Test C postemergence; assay type: in vivo; details: for Windgrass plant response rating: scale 0 to 100 (0 no effect, 100 complete control)
Outline: as §3

[12] = tested on: downy brome (Bromus tectorum); assay: Test C postemergence; assay type: in vivo
Outline: as §3

[13] = tested on: green foxtail (Setaria viridis); assay: Test C postemergence; assay type: in vivo; details: for Foxtail, Green plant response rating: scale 0 to 100 (0 no effect, 100 complete control)
Outline: as §3

[14] = tested on: blackgrass (Alopecurus myosuroides); assay: Test C postemergence; assay type: in vivo
Outline: as §3

[15] = 500 g ai/ha, scale 0 to 100 (0 no effect, 100 complete control)
[16] = 62 g ai/ha, scale 0 to 100 (0 no effect, 100 complete control)

CCOC(=O)c1nc(-c2ccccc2)nc(N)c1Br [Compound 18]
110 to 111 °C: melting point

Nc1nc(C2CC2)nc(C(=O)O)c1Br [Compound 8]
160 to 162 °C: melting point

CCOC(=O)c1nc(C(C)(C)C)nc(N)c1Br [Compound 36]
69 to 70 °C: melting point

CCOC(=O)c1nc(-c2ccc(Cl)cc2)nc(N)c1Br [Compound 37]
85: Plant response rating, Sedge, Umbrella ([3]; 62 g ai/ha) | Plant response rating, Sedge, Umbrella ([3]; 125 g ai/ha)
0: Plant response rating, Barnyardgrass ([1]; 62 g ai/ha, scale 0 to 100) | Plant response rating, Barnyardgrass ([1]; 125 g ai/ha, scale 0 to 100) | Plant response rating, Barnyardgrass ([1]; 250 g ai/ha, scale 0 to 100) | Plant response rating, Barnyardgrass [1, 15] | Plant response rating, Rice (rice (Oryza sativa); 62 g ai/ha) | Plant response rating, Rice (rice (Oryza sativa); 125 g ai/ha) | Plant response rating, Rice (rice (Oryza sativa); 250 g ai/ha) | Plant response rating, Rice (rice (Oryza sativa); 500 g ai/ha) | Rice, Water Seeded plant response rating ([4]; 32 g ai/ha) | Rice, Water Seeded plant response rating ([4]; 64 g ai/ha) | Rice, Water Seeded plant response rating ([4]; 125 g ai/ha) | Rice, Water Seeded plant response rating ([4]; 250 g ai/ha) | Plant response rating, Rice, Water Seeded ([4]; 16 g ai/ha) | Watergrass, Late plant response rating ([5]; 32 g ai/ha) | Watergrass, Late plant response rating ([5]; 64 g ai/ha) | Watergrass, Late plant response rating ([5]; 125 g ai/ha) | Watergrass, Late plant response rating ([5]; 250 g ai/ha) | Plant response rating, Watergrass, Late ([5]; 16 g ai/ha) | Flatsedge, Rice plant response rating ([6]; 32 g ai/ha) | Flatsedge, Rice plant response rating ([6]; 64 g ai/ha) | Plant response rating, Flatsedge, Rice ([6]; 16 g ai/ha)
95: Plant response rating, Ducksalad ([2]; 62 g ai/ha) | Plant response rating, Ducksalad ([2]; 125 g ai/ha) | Plant response rating, Sedge, Umbrella ([3]; 500 g ai/ha)
100: Plant response rating, Ducksalad ([2]; 250 g ai/ha) | Plant response rating, Ducksalad ([2]; 500 g ai/ha)
75: Flatsedge, Rice plant response rating ([6]; 125 g ai/ha)
90: Plant response rating, Sedge, Umbrella ([3]; 250 g ai/ha) | Flatsedge, Rice plant response rating ([6]; 250 g ai/ha)

COC(=O)c1nc(C2CC2)nc(N=CN(C)C)c1Br [Compound 19]
20: Plant response rating, Ducksalad ([2]; 62 g ai/ha) | Plant response rating, Sedge, Umbrella ([3]; 62 g ai/ha) | Plant response rating, Rice (rice (Oryza sativa); 500 g ai/ha)
10: Plant response rating, Rice (rice (Oryza sativa); 250 g ai/ha) | Plant response rating (scale of 0 to 100), Wheat ([7]; 16 g ai/ha)
55: Plant response rating (scale of 0 to 100), Blackgrass ([14]; 16 g ai/ha)
70: Ryegrass, Italian plant response rating ([8]; 125 g ai/ha)
65: Plant response rating (scale of 0 to 100), Ryegrass, Italian ([8]; 16 g ai/ha) | Plant response rating (scale of 0 to 100), Ryegrass, Italian ([8]; 31 g ai/ha) | Ryegrass, Italian plant response rating ([8]; 62 g ai/ha) | Plant response rating, Canarygrass ([9]; 125 g ai/ha, scale 0 to 100) | Blackgrass plant response rating [14, 16] | Plant response rating, Blackgrass ([14]; 125 g ai/ha, scale 0 to 100)
40: Plant response rating, Ducksalad ([2]; 125 g ai/ha) | Wheat plant response rating ([7]; 62 g ai/ha) | Plant response rating (scale of 0 to 100), Windgrass ([11]; 16 g ai/ha) | Plant response rating (scale of 0 to 100), Windgrass ([11]; 31 g ai/ha)
25: Plant response rating (scale of 0 to 100), Barley ([10]; 16 g ai/ha) | Plant response rating (scale of 0 to 100), Barley ([10]; 31 g ai/ha)
0: Plant response rating, Barnyardgrass ([1]; 62 g ai/ha, scale 0 to 100) | Plant response rating, Barnyardgrass ([1]; 125 g ai/ha, scale 0 to 100) | Plant response rating, Barnyardgrass ([1]; 250 g ai/ha, scale 0 to 100) | Plant response rating, Rice (rice (Oryza sativa); 62 g ai/ha) | Plant response rating, Rice (rice (Oryza sativa); 125 g ai/ha) | Plant response rating (scale of 0 to 100), Bromegrass, Downy ([12]; 16 g ai/ha) | Plant response rating (scale of 0 to 100), Bromegrass, Downy ([12]; 31 g ai/ha)
50: Plant response rating, Sedge, Umbrella ([3]; 125 g ai/ha) | Plant response rating, Sedge, Umbrella ([3]; 250 g ai/ha) | Plant response rating, Sedge, Umbrella ([3]; 500 g ai/ha) | Bromegrass, Downy plant response rating [12, 16]
60: Plant response rating, Barnyardgrass [1, 15] | Plant response rating, Ducksalad ([2]; 250 g ai/ha) | Plant response rating, Ducksalad ([2]; 500 g ai/ha) | Plant response rating (scale of 0 to 100), Canarygrass ([9]; 31 g ai/ha) | Canarygrass plant response rating [9, 16] | Windgrass plant response rating ([11]; 62 g ai/ha) | Windgrass plant response rating ([11]; 125 g ai/ha) | Plant response rating, Bromegrass, Downy ([12]; 125 g ai/ha, scale 0 to 100) | Foxtail, Green plant response rating ([13]; 125 g ai/ha) | Plant response rating (scale of 0 to 100), Blackgrass ([14]; 31 g ai/ha)
35: Barley plant response rating [10, 16] | Plant response rating (scale of 0 to 100), Foxtail, Green ([13]; 31 g ai/ha)
30: Plant response rating (scale of 0 to 100), Wheat ([7]; 31 g ai/ha) | Plant response rating (scale of 0 to 100), Foxtail, Green ([13]; 16 g ai/ha)
45: Wheat plant response rating ([7]; 125 g ai/ha) | Plant response rating (scale of 0 to 100), Canarygrass ([9]; 16 g ai/ha) | Plant response rating, Barley ([10]; 125 g ai/ha, scale 0 to 100) | Foxtail, Green plant response rating ([13]; 62 g ai/ha)

COC(=O)c1nc(C2CC2)nc(N)c1I [Compound 7]
145 to 146 °C: melting point
